Results taken from US20250195530A1, “POLQ INHIBITORS” (ASTRAZENECA AB, priority 2022, published 2025).

system: DLD-1 BRCA2−/− cells; assay: Homologous recombination synthetic lethal inhibition of proliferation, DLD-1 BRCA2-/- (Cell Titre Glo 3D); format: cell-based; details: Homo sapiens, DLD-1, 288 h, DLD-1 BRCA2−/− cells, 12 days; read-out: POLQ PD Prolif Lumin BRCA2 −/− mean pIC50 (converted)
Procedure, shortened: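 Cells are seeded in RPMI 1640 (phenol red free, 10% FBS, GlutaMAX) onto pre-dosed compound (10 μM to 0.51 nM, three-fold). Plates are incubated at 37 °C, and medium plus compound are refreshed on day 6. Viability is read by CellTiter-Glo 3D at day 7 (DLD-1) or day 12 (DLD-1 BRCA2−/−), and the IC50 is fitted.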

SMILES	IC50
CC1(Oc2ncnc3c2nc(-c2ccc(OCCN4CCN[C@@H](CC#N)C4)cc2Cl)n3Cc2ccccc2)CC1 [Example R23, (S)-2-(4-(2-(4-(9-benzyl-6-(1-methylcyclopropoxy)-9H-purin-8-yl)-3-chlorophenoxy)ethyl)piperazin-2-yl)acetonitrile]	63.1 nM

same assay, conditions: Homo sapiens, DLD-1, DLD-1 BRCA2 −/− cells; mean; read-out: POLQ PD Prolif Lumin BRCA2 −/− mean pIC50 (converted)

SMILES	IC50
Cc1nnc(Cn2c(-c3ccc(CC(N)=O)cc3Cl)nc3c(OC4(C)CC4)ncnc32)s1 [Example T1, 2-(3-chloro-4-(9-((5-methyl-1,3,4-thiadiazol-2-yl)methyl)-6-(1-methylcyclopropoxy)-9H-purin-8-yl)phenyl)acetamide]	> 10000 nM
Cc1nnc(Cn2c(-c3ccc(CC(N)=O)cc3Cl)nc3c(OC4(C)CC4)ncnc32)o1 [Example T2, 2-(3-chloro-4-(9-((5-methyl-1,3,4-oxadiazol-2-yl)methyl)-6-(1-methylcyclopropoxy)-9H-purin-8-yl)phenyl)acetamide]	> 10000 nM
Cc1ccnc(Cn2c(-c3ccc(N)cc3Cl)nc3c(OC4(C)CC4)ncnc32)c1 [Example T3, 3-chloro-4-(6-(1-methylcyclopropoxy)-9-((4-methylpyridin-2-yl)methyl)-9H-purin-8-yl)aniline]	200 nM
Cc1ncc(Cn2c(-c3ccc(CC(N)=O)cc3Cl)nc3c(OC4(C)CC4)ncnc32)s1 [Example T5, 2-(3-chloro-4-(6-(1-methylcyclopropoxy)-9-((2-methylthiazol-5-yl)methyl)-9H-purin-8-yl)phenyl)acetamide]	> 7940 nM
Cc1nc(Cn2c(-c3ccc(CC(N)=O)cc3Cl)nc3c(OC4(C)CC4)ncnc32)cs1 [Example T6, 2-(3-chloro-4-(6-(1-methylcyclopropoxy)-9-((2-methylthiazol-4-yl)methyl)-9H-purin-8-yl)phenyl)acetamide]	7940 nM
CC1(Oc2ncnc3c2nc(-c2ccc(CC(N)=O)cc2Cl)n3CCc2nccs2)CC1 [Example T7, 2-(3-chloro-4-(6-(1-methylcyclopropoxy)-9-(2-(thiazol-2-yl)ethyl)-9H-purin-8-yl)phenyl)acetamide]	> 10000 nM
CNC(=O)COc1ccc(-c2nc3c(OC4(C)CC4)ncnc3n2Cc2cncs2)c(Cl)c1 [Example T8, 2-(3-chloro-4-(6-(1-methylcyclopropoxy)-9-(thiazol-5-ylmethyl)-9H-purin-8-yl)phenoxy)-N-methylacetamide]	5010 nM
CC1(Oc2ncnc3c2nc(-c2ccc(C(=O)O)cc2Cl)n3Cc2cccc(Cl)c2)CC1 [Example T11, 3-chloro-4-(9-(3-chlorobenzyl)-6-(1-methylcyclopropoxy)-9H-purin-8-yl)benzoic acid]	794 nM
Cc1nnccc1Cn1c(-c2ccc(CC(N)=O)cc2Cl)nc2c(OC3(C)CC3)ncnc21 [Example T17, 2-(3-chloro-4-(6-(1-methylcyclopropoxy)-9-((3-methylpyridazin-4-yl)methyl)-9H-purin-8-yl)phenyl)acetamide]	> 10000 nM
Cc1cnnc(Cn2c(-c3ccc(CC(N)=O)cc3Cl)nc3c(OC4(C)CC4)ncnc32)c1 [Example T18, 2-(3-chloro-4-(6-(1-methylcyclopropoxy)-9-((5-methylpyridazin-3-yl)methyl)-9H-purin-8-yl)phenyl)acetamide]	> 10000 nM
Cc1cc(Cn2c(-c3ccc(CC(N)=O)cc3Cl)nc3c(OC4(C)CC4)ncnc32)ncn1 [Example T19, 2-(3-chloro-4-(6-(1-methylcyclopropoxy)-9-((6-methylpyrimidin-4-yl)methyl)-9H-purin-8-yl)phenyl)acetamide]	> 10000 nM
CC1(Oc2ncnc3c2nc(-c2ccc(CC(N)=O)cc2Cl)n3Cc2nnc(C3CC3)s2)CC1 [Example T20, 2-(3-chloro-4-(9-((5-cyclopropyl-1,3,4-thiadiazol-2-yl)methyl)-6-(1-methylcyclopropoxy)-9H-purin-8-yl)phenyl)acetamide]	2510 nM
CC1(Oc2ncnc3c2nc(-c2ccc(CC(N)=O)cc2Cl)n3Cc2nnc(C3CC3)o2)CC1 [Example T21, 2-(3-chloro-4-(9-((5-cyclopropyl-1,3,4-oxadiazol-2-yl)methyl)-6-(1-methylcyclopropoxy)-9H-purin-8-yl)phenyl)acetamide]	> 10000 nM
COc1cnnc(Cn2c(-c3ccc(CC(N)=O)cc3Cl)nc3c(OC4(C)CC4)ncnc32)c1 [Example T22, 2-(3-chloro-4-(9-((5-methoxypyridazin-3-yl)methyl)-6-(1-methylcyclopropoxy)-9H-purin-8-yl)phenyl)acetamide]	3980 nM
CC1(Oc2ncnc3c2nc(-c2ccc(CC(N)=O)cc2Cl)n3Cc2nc(C3CC3)no2)CC1 [Example T23, 2-(3-chloro-4-(9-((3-cyclopropyl-1,2,4-oxadiazol-5-yl)methyl)-6-(1-methylcyclopropoxy)-9H-purin-8-yl)phenyl)acetamide]	1260 nM
Cc1nc(Cn2c(-c3ccc(CC(N)=O)cc3Cl)nc3c(OC4(C)CC4)ncnc32)sc1C [Example T24, 2-(3-chloro-4-(9-((4,5-dimethylthiazol-2-yl)methyl)-6-(1-methylcyclopropoxy)-9H-purin-8-yl)phenyl)acetamide]	794 nM

SMILES	IC50
Cc1nc(C)c(Cn2c(-c3ccc(CC(N)=O)cc3Cl)nc3c(OC4(C)CC4)ncnc32)s1 [Example T25, 2-(3-chloro-4-(9-((2,4-dimethylthiazol-5-yl)methyl)-6-(1-methylcyclopropoxy)-9H-purin-8-yl)phenyl)acetamide]	1000 nM
Cc1ncsc1CCn1c(-c2ccc(CC(N)=O)cc2Cl)nc2c(OC3(C)CC3)ncnc21 [Example T26, 2-(3-chloro-4-(6-(1-methylcyclopropoxy)-9-(2-(4-methylthiazol-5-yl)ethyl)-9H-purin-8-yl)phenyl)acetamide]	316 nM
Cc1noc(C)c1Cn1c(-c2ccc(CC(N)=O)cc2Cl)nc2c(OC3(C)CC3)ncnc21 [Example T27, 2-(3-chloro-4-(9-((3,5-dimethylisoxazol-4-yl)methyl)-6-(1-methylcyclopropoxy)-9H-purin-8-yl)phenyl)acetamide]	> 10000 nM
CNC(=O)COc1ccc(-c2nc3c(OC4(C)CC4)ncnc3n2Cc2ncc(C)s2)c(Cl)c1 [Example T28, 2-(3-chloro-4-(6-(1-methylcyclopropoxy)-9-((5-methylthiazol-2-yl)methyl)-9H-purin-8-yl)phenoxy)-N-methylacetamide]	631 nM
CNS(=O)(=O)c1ccc(-c2nc3c(OC4(C)CC4)ncnc3n2Cc2cc(C)ccn2)c(Cl)c1 [Example T30, 3-chloro-N-methyl-4-(6-(1-methylcyclopropoxy)-9-((4-methylpyridin-2-yl)methyl)-9H-purin-8-yl)benzenesulfonamide]	631 nM
Cc1cnn(C)c1Cn1c(-c2ccc(CC(N)=O)cc2Cl)nc2c(OC3(C)CC3)ncnc21 [Example T31, 2-(3-chloro-4-(9-((1,4-dimethyl-1H-pyrazol-5-yl)methyl)-6-(1-methylcyclopropoxy)-9H-purin-8-yl)phenyl)acetamide]	> 10000 nM
Cc1cc(Cn2c(-c3ccc(CC(N)=O)cc3Cl)nc3c(OC4(C)CC4)ncnc32)n(C)n1 [Example T32, 2-(3-chloro-4-(9-((1,3-dimethyl-1H-pyrazol-5-yl)methyl)-6-(1-methylcyclopropoxy)-9H-purin-8-yl)phenyl)acetamide]	2000 nM
Cc1nn(C)cc1Cn1c(-c2ccc(CC(N)=O)cc2Cl)nc2c(OC3(C)CC3)ncnc21 [Example T33, 2-(3-chloro-4-(9-((1,3-dimethyl-1H-pyrazol-4-yl)methyl)-6-(1-methylcyclopropoxy)-9H-purin-8-yl)phenyl)acetamide]	> 10000 nM
CC1(Oc2ncnc3c2nc(-c2ccc(CC(N)=O)cc2Cl)n3Cc2ccnc(C(F)(F)F)c2)CC1 [Example T35, 2-(3-chloro-4-(6-(1-methylcyclopropoxy)-9-((2-(trifluoromethyl)pyridin-4-yl)methyl)-9H-purin-8-yl)phenyl)acetamide]	2510 nM
CC1(Oc2ncnc3c2nc(-c2ccc(CC(N)=O)cc2Cl)n3Cc2cc(C(F)(F)F)ccn2)CC1 [Example T36, 2-(3-chloro-4-(6-(1-methylcyclopropoxy)-9-((4-(trifluoromethyl)pyridin-2-yl)methyl)-9H-purin-8-yl)phenyl)acetamide]	501 nM
CC1(Oc2ncnc3c2nc(-c2ccc(CC(N)=O)cc2Cl)n3Cc2cccnc2C(F)(F)F)CC1 [Example T37, 2-(3-chloro-4-(6-(1-methylcyclopropoxy)-9-((2-(trifluoromethyl)pyridin-3-yl)methyl)-9H-purin-8-yl)phenyl)acetamide]	> 10000 nM
CC1(Oc2ncnc3c2nc(-c2ccc(CC(N)=O)cc2Cl)n3Cc2ccc(C(F)(F)F)nc2)CC1 [Example T38, 2-(3-chloro-4-(6-(1-methylcyclopropoxy)-9-((6-(trifluoromethyl)pyridin-3-yl)methyl)-9H-purin-8-yl)phenyl)acetamide]	6310 nM
CC1(Oc2ncnc3c2nc(-c2ccc(CC(N)=O)cc2Cl)n3Cc2cncc(C#N)c2)CC1 [Example T39, 2-(3-chloro-4-(9-((5-cyanopyridin-3-yl)methyl)-6-(1-methylcyclopropoxy)-9H-purin-8-yl)phenyl)acetamide]	6310 nM
CC1(Oc2ncnc3c2nc(-c2ccc(CC(N)=O)cc2Cl)n3Cc2ccnc(C#N)c2)CC1 [Example T40, 2-(3-chloro-4-(9-((2-cyanopyridin-4-yl)methyl)-6-(1-methylcyclopropoxy)-9H-purin-8-yl)phenyl)acetamide]	5010 nM
CC1(Oc2ncnc3c2nc(-c2ccc(CC(N)=O)cc2Cl)n3Cc2cccc(F)c2)CC1 [Example T42, 2-(3-chloro-4-(9-(3-fluorobenzyl)-6-(1-methylcyclopropoxy)-9H-purin-8-yl)phenyl)acetamide]	158 nM
CC1(Oc2ncnc3c2nc(-c2ccc(CC(N)=O)cc2Cl)n3Cc2ccc(F)cc2)CC1 [Example T43, 2-(3-chloro-4-(9-(4-fluorobenzyl)-6-(1-methylcyclopropoxy)-9H-purin-8-yl)phenyl)acetamide]	631 nM
